According to US9603889B2, “IAP antagonists” (BRISTOL-MYERS SQUIBB COMPANY, priority 2012, dated 2017):
Where a name gives a salt, the structure may show the parent alone.

Each compound was assayed against XIAP BIR3 (N-His-Tb-BIR3(241-356, XIAP)) (Homo sapiens (Human), UniProt P98170). Settings: 130 nM N-His-Tb-BIR3(241-356, XIAP), 1.4 nM fluoresceinated modified SMAC peptide, 60 minutes room temperature; read-out: XIAP BIR3 FPA IC50.
Format: binding

Sequence of XIAP BIR3 (N-His-Tb-BIR3(241-356, XIAP)) (P98170 241-356): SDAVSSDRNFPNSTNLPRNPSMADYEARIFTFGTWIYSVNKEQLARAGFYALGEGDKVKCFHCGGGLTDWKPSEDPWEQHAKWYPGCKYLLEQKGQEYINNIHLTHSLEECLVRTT

| SMILES | IC50 [nM] |
| --- | --- |
| CN[C@@H](C)C(=O)N[C@H](C(=O)N1Cc2ccccc2C[C@H]1CN(CCc1ccccc1)C(=O)c1ccc(C(=O)N[C@H]2C[C@@H](C(=O)N[C@@H]3CCCc4ccccc43)N(C(=O)[C@@H](NC(=O)[C@H](C)NC)C(C)(C)C)C2)cc1)C(C)(C)C [Example 10, N^1-(((S)-2-((S)-3,3-Dimethyl-2-((S)-2-(methylamino)propanamido)butanoyl)-1,2,3,4-tetrahydroisoquinolin-3-yl)methyl)-N^4-((3S,5S)-1-((S)-3,3-dimethyl-2-((S)-2-(methylamino)propanamido)butanoyl)-5-(((R)-1,2,3,4-tetrahydronaphthalen-1-yl)carbamoyl)pyrrolidin-3-yl)-N^1-phenethylterephthalamide] | 60 |
| CN[C@@H](C)C(=O)N[C@H](C(=O)N1C[C@@H](NC(=O)c2ccc(CN(C(=O)[C@@H]3Cc4ccccc4CN3C(=O)[C@@H](NC(=O)[C@H](C)NC)C(C)(C)C)[C@H](C)c3ccccc3)cc2)C[C@H]1C(=O)N[C@@H]1CCCc2ccccc21)C(C)(C)C [Example 23, (S)-2-((S)-3,3-Dimethyl-2-((S)-2-(methylamino)propanamido)butanoyl)-N-(4-(((3S,5S)-1-((S)-3,3-dimethyl-2-((S)-2-(methylamino)propanamido)butanoyl)-5-(((R)-1,2,3,4-tetra-hydronaphthalen-1-yl)carbamoyl)pyrrolidin-3-yl)carbamoyl)benzyl)-N-((R)-1-phenylethyl)-1,2,3,4-tetra-hydroisoquinoline-3-carboxamide] | 120 |
| CN[C@@H](C)C(=O)N[C@H](C(=O)N1C[C@@H](NC(=O)c2ccc(CN(CCc3ccccc3)C(=O)[C@@H]3Cc4ccccc4CN3C(=O)[C@@H](NC(=O)[C@H](C)NC)C(C)(C)C)cc2)C[C@H]1C(=O)N[C@@H]1CCCc2ccccc21)C(C)(C)C [Example 2, (S)-2-((S)-3,3-Dimethyl-2-((S)-2-(methylamino)propanamido)butanoyl)-N-(4-(((3S,5S)-1-((S)-3,3-dimethyl-2-((S)-2-(methylamino)propanamido)butanoyl)-5-(((R)-1,2,3,4-tetrahydronaphthalen-1-yl)carbamoyl)pyrrolidin-3-yl)carbamoyl)benzyl)-N-phenethyl-1,2,3,4-tetrahydroisoquinoline-3-carboxamide] | 30 |
| CN[C@@H](C)C(=O)N[C@H](C(=O)N1C[C@@H](NC(=O)CCCN(C(=O)[C@@H]2Cc3ccccc3CN2C(=O)[C@@H](NC(=O)[C@H](C)NC)C(C)(C)C)[C@H](C)c2ccccc2F)C[C@H]1C(=O)N[C@@H]1CCCc2ccccc21)C(C)(C)C [Example 41, (S)-2-((S)-3,3-Dimethyl-2-((S)-2-(methylamino)propanamido)butanoyl)-N-(4-(((3S,5S)-1-((S)-3,3-dimethyl-2-((S)-2-(methylamino)propanamido)butanoyl)-5-(((R)-1,2,3,4-tetrahydronaphthalen-1-yl)carbamoyl)pyrrolidin-3-yl)amino)-4-oxobutyl)-N-((R)-1-(2-fluorophenyl)ethyl)-1,2,3,4-tetrahydroisoquinoline-3-carboxamide] | 60 |
| CN[C@@H](C)C(=O)N[C@H](C(=O)N1CC(NC(=O)c2ccc(CN(C(=O)[C@@H]3Cc4ccccc4CN3C(=O)[C@@H](NC(=O)[C@H](C)NC)C(C)(C)C)C(C)c3ccccc3Cl)cc2)C[C@H]1C(=O)NC1CCCc2ccccc21)C(C)(C)C (stereo partly drawn) [Example 26, (3S)-N-(1-(2-Chlorophenyl)ethyl)-2-((S)-3,3-dimethyl-2-((S)-2-(methylamino)propanamido)butanoyl)-N-(4-(((3S,5S)-1-((S)-3,3-dimethyl-2-((S)-2-(methylamino)propanamido)butanoyl)-5-(((R)-1,2,3,4-tetrahydro-naphthalen-1-yl)carbamoyl)pyrrolidin-3-yl)carbamoyl)benzyl)-1,2,3,4-tetra-hydroisoquinoline-3-carboxamide] | 190 |
| CN[C@@H](C)C(=O)N[C@H](C(=O)N1C[C@@H](NC(=O)c2ccc(CN(C(=O)[C@@H]3Cc4ccccc4CN3C(=O)[C@@H](NC(=O)[C@H](C)NC)C(C)(C)C)[C@H](C)c3ccccc3OC)cc2)C[C@H]1C(=O)N[C@@H]1CCCc2ccccc21)C(C)(C)C [Example 24, (S)-2-((S)-3,3-Dimethyl-2-((S)-2-(methylamino)propanamido)butanoyl)-N-(4-(((3S,5S)-1-((S)-3,3-dimethyl-2-((S)-2-(methylamino)propanamido)butanoyl)-5-(((R)-1,2,3,4-tetrahydro-naphthalen-1-yl)carbamoyl)pyrrolidin-3-yl)carbamoyl)benzyl)-N-((R)-1-(2-methoxyphenyl)ethyl)-1,2,3,4-tetrahydro-isoquinoline-3-carboxamide] | 130 |
| CN[C@@H](C)C(=O)N[C@H](C(=O)N1Cc2ccccc2CC1C(=O)N(CC1(C(=O)NC2C[C@@H](C(=O)NC3CCCc4ccccc43)N(C(=O)[C@@H](NC(=O)[C@H](C)NC)C(C)(C)C)C2)CC1)[C@@H](COC)c1ccccc1)C(C)(C)C (stereo partly drawn) [Example 38, (S)-2-((S)-3,3-Dimethyl-2-((S)-2-(methylamino)propanamido)butanoyl)-N-((1-(((3S,5S)-1-((S)-3,3-dimethyl-2-((S)-2-(methylamino)propanamido)butanoyl)-5-(((R)-1,2,3,4-tetrahydronaphthalen-1-yl)carbamoyl)pyrrolidin-3-yl)carbamoyl)cyclopropyl)methyl)-N-((S)-2-methoxy-1-phenylethyl)-1,2,3,4-tetrahydroisoquinoline-3-carboxamide, 2 TFA] | 60 |
| CN[C@@H](C)C(=O)N[C@H](C(=O)N1Cc2ccccc2C[C@H]1CN(CCc1cccc2ccccc12)C(=O)c1ccc(C(=O)N[C@H]2C[C@@H](C(=O)N[C@@H]3CCCc4ccccc43)N(C(=O)[C@@H](NC(=O)[C@H](C)NC)C(C)(C)C)C2)cc1)C(C)(C)C [Example 33, N^1-(((S)-2-((S)-3,3-Dimethyl-2-((S)-2-(methylamino)propanamido)butanoyl)-1,2,3,4-tetrahydro-isoquinolin-3-yl)methyl)-N^4-((3S,5S)-1-((S)-3,3-dimethyl-2-((S)-2-(methylamino)propanamido)butanoyl)-5-(((R)-1,2,3,4-tetrahydro-naphthalen-1-yl)carbamoyl)pyrrolidin-3-yl)-N^1-(2-(naphthalen-1-yl)ethyl) terephthalamide] | 120 |
| CN[C@@H](C)C(=O)N[C@H](C(=O)N1Cc2ccccc2C[C@H]1CN(C(=O)c1ccc(C(=O)N[C@H]2C[C@@H](C(=O)N[C@@H]3CCCc4ccccc43)N(C(=O)[C@@H](NC(=O)[C@H](C)NC)C(C)(C)C)C2)cc1)[C@H](C)c1ccc2ccccc2c1)C(C)(C)C [Example 31, N^1-(((S)-2-((S)-3,3-Dimethyl-2-((S)-2-(methylamino)propanamido)butanoyl)-1,2,3,4-tetrahydro-isoquinolin-3-yl)methyl)-N^4-((3S,5S)-1-((S)-3,3-dimethyl-2-((S)-2-(methyl-amino)propanamido)butanoyl)-5-(((R)-1,2,3,4-tetrahydro-naphthalen-1-yl)carbamoyl)pyrrolidin-3-yl)-N^1-((R)-1-(naphthalen-2-yl)ethyl) terephthalamide] | 250 |
| CN[C@@H](C)C(=O)N[C@H](C(=O)N1CCc2ccccc2[C@H]1C(=O)N(Cc1ccc(C(=O)N[C@H]2C[C@@H](C(=O)N[C@@H]3CCCc4ccccc43)N(C(=O)[C@@H](NC(=O)[C@H](C)NC)C(C)(C)C)C2)cc1)[C@H](C)Cc1ccccc1F)C(C)(C)C [Example 27, (S)-2-((S)-3,3-Dimethyl-2-((S)-2-(methylamino)propanamido)butanoyl)-N-(4-(((3S,5S)-1-((S)-3,3-dimethyl-2-((S)-2-(methylamino)propanamido)butanoyl)-5-(((R)-1,2,3,4-tetrahydro-naphthalen-1-yl)carbamoyl)pyrrolidin-3-yl)carbamoyl)benzyl)-N-((R)-1-(2-fluorophenyl)propan-2-yl)-1,2,3,4-tetrahydro-isoquinoline-1-carboxamide] | 90 |
| CN[C@@H](C)C(=O)N[C@H](C(=O)N1Cc2ccccc2C[C@H]1CN(Cc1cccc(C)c1C)C(=O)c1ccc(C(=O)N[C@H]2C[C@@H](C(=O)N[C@@H]3CCCc4ccccc43)N(C(=O)[C@@H](NC(=O)[C@H](C)NC)C(C)(C)C)C2)cc1)C(C)(C)C [Example 36, N^1-(((S)-2-((S)-3,3-Dimethyl-2-((S)-2-(methylamino)propanamido)butanoyl)-1,2,3,4-tetrahydro-isoquinolin-3-yl)methyl)-N^4-((3S,5S)-1-((S)-3,3-dimethyl-2-((S)-2-(methylamino)propanamido)butanoyl)-5-(((R)-1,2,3,4-tetrahydro-naphthalen-1-yl)carbamoyl)pyrrolidin-3-yl)-N^1-(2,3-dimethyl-benzyl) terephthalamide] | 90 |
| CN[C@@H](C)C(=O)N[C@H](C(=O)N1C[C@@H](NC(=O)c2ccc(CN(C(=O)[C@@H]3Cc4ccccc4CN3C(=O)[C@@H](NC(=O)[C@H](C)NC)C(C)(C)C)[C@@H](C)c3cccc(Cl)c3)cc2)C[C@H]1C(=O)N[C@@H]1CCCc2ccccc21)C(C)(C)C [Example 18, (S)-N-((S)-1-(3-Chlorophenyl)ethyl)-2-((S)-3,3-dimethyl-2-((S)-2-(methylamino)propanamido)butanoyl)-N-(4-(((3S,5S)-1-((S)-3,3-dimethyl-2-((S)-2-(methylamino)propanamido)butanoyl)-5-(((R)-1,2,3,4-tetrahydro-naphthalen-1-yl)carbamoyl)pyrrolidin-3-yl)carbamoyl)benzyl)-1,2,3,4-tetrahydro-isoquinoline-3-carboxamide] | 120 |
| CCOc1ccccc1[C@@H](C)N(Cc1ccc(C(=O)N[C@H]2C[C@@H](C(=O)N[C@@H]3CCCc4ccccc43)N(C(=O)[C@@H](NC(=O)[C@H](C)NC)C(C)(C)C)C2)cc1)C(=O)[C@@H]1Cc2ccccc2CN1C(=O)[C@@H](NC(=O)[C@H](C)NC)C(C)(C)C [Example 29, (S)-2-((S)-3,3-Dimethyl-2-((S)-2-(methylamino)propanamido)butanoyl)-N-(4-(((3S,5S)-1-((S)-3,3-dimethyl-2-((S)-2-(methyl-amino)propanamido)butanoyl)-5-(((R)-1,2,3,4-tetra-hydronaphthalen-1-yl)carbamoyl)pyrrolidin-3-yl)carbamoyl)benzyl)-N-((R)-1-(2-ethoxyphenyl)ethyl)-1,2,3,4-tetrahydro-isoquinoline-3-carboxamide] | 160 |
